Test system: Normal human fibroblasts
Test: Peroxidation of lipids test: protection against UVA-induced lipid peroxidation (8-iso-Prostanes release)
Assay type: cell-based
Settings: pure ellagic acid at 3 μM for 24 h, then UVA exposure, assayed 2 h30 after exposure
Method: An evaluation of the protection potential against UVA-induced lipid peroxidation of Punica granatum extract according to the invention obtained according to Example 1 was made and compared to the protection against UVA-induced lipid peroxidation of pure ellagic acid. Normal human fibroblasts are treated either with the Punica granatum extract according to the invention at 0.001% or with pure ellagic acid at 3 μM for 24 h and then exposed to a UVA dose inducing no more than 20% cell death. A control was performed consisting in normal human fibroblasts exposed to a UVA dose inducing no more than 20% cell death. 8-iso-Prostanes release is assayed 2 h30 after the exposure.

O=c1oc2c(O)c(O)cc3c(=O)oc4c(O)c(O)cc1c4c23 [Ellagic acid, ellagic acid]
protection against lipid peroxidation (UV-exposed control = 0%): 35%
release of 8-iso-Prostanes (UV-exposed control = 100%): 65%
